# Values of other authors, collected in EP3842031A1, “NEW THERAPEUTIC INHALATION SYSTEM PROVIDING REDUCED DOSE OF FLUTICASONE PROPIONATE AND SALMETEROL XINAFOATE WITH IMPROVED EFFICACY AND SAFETY PROFILE” (PRZEDSIEBIORSTWO FARMACEUTYCZNE LEK-AM SP Z O. O., priority 2019, dated 2021).
# Legend:
# [1] = in vivo
# [2] = compared with beclomethasone dipropionate, control of chronic asthma
smiles,measurement,setting,value
CCC(=O)O[C@]1(C(=O)SCF)[C@H](C)C[C@H]2[C@@H]3C[C@H](F)C4=CC(=O)C=C[C@]4(C)[C@@]3(F)[C@@H](O)C[C@@]21C [Fluticasone propionate],oral bioavailability,[1],less than 1%
same,potency,[2],twice the potency of the beclomethasone dipropionate
